# Source: publication PMC4747190, “Flavokawain A induces deNEDDylation and Skp2 degradation leading to inhibition of tumorigenesis and cancer progression in the TRAMP transgenic mouse model” (Oncotarget, 2015)
# Molecular target: T1, NEDD8-activating enzyme (NAE), Uba3 subunit (Homo sapiens, UniProt Q8TBC4)
# T1 construct: His-APP-BP1, His-Uba3 (kit enzymes); with APPBP1 (NAE1); Ubc12 and NEDD8 present in the assay
# Assay: in vitro NEDD8 conjugation assay with purified E1 (APPBP1/Uba3), Ubc12 and NEDD8; non-reducing western blot of Ubc12-NEDD8
# Format: biochemical
# T1 sequence (Q8TBC4 2-463): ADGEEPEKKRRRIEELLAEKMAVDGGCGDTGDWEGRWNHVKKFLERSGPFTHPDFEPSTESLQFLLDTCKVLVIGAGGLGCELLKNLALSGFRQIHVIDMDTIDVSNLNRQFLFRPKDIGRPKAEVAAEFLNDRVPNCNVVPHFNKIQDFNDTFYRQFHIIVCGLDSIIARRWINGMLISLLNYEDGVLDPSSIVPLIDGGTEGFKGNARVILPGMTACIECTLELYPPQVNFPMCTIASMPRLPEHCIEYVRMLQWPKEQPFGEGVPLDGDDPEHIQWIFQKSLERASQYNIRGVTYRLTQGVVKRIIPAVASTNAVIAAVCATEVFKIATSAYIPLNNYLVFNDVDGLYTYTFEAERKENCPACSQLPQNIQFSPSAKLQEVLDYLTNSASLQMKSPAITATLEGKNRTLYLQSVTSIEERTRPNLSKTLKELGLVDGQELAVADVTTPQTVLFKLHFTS
# T1 sequence (Q13564 2-534 partner): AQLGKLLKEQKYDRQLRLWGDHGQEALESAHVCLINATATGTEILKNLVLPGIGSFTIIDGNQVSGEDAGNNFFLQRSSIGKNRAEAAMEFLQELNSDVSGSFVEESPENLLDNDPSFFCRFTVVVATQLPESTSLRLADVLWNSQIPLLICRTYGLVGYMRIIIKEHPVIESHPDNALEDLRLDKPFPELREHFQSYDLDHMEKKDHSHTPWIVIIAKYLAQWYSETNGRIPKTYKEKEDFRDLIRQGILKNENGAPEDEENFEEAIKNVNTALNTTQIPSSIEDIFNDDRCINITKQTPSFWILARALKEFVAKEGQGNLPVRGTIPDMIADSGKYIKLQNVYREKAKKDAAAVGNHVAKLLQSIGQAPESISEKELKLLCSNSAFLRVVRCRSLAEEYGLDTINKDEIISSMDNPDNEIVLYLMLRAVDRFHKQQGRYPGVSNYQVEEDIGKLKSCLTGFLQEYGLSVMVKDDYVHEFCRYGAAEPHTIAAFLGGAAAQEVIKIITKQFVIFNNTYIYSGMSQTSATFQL
# T1 sequence (P61081 whole entry partner): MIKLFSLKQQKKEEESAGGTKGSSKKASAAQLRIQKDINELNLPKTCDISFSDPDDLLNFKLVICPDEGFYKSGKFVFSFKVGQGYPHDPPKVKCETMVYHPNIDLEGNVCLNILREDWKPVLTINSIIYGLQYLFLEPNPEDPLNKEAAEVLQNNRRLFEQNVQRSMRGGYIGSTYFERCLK
# T1 sequence (Q15843 1-76 partner): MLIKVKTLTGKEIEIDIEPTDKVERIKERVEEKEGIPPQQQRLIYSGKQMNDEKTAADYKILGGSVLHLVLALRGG
smiles,measurement,value
"COc1ccc(/C=C/C(=O)c2c(O)cc(OC)cc2OC)cc1 [FKA, flavokawain A]",IC50,~5 µM
